For two compounds, TGI results are on record in PubChem BioAssay (NCI).

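Cells were grown in 96-well plates and exposed to each compound for 48 hours at five concentrations; endpoints were interpolated linearly between bracketing concentrations, or set to the highest concentration if not reached. TGI is the concentration that stops growth completely.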

One experiment concerns P388/ADR leukemia. Nature of the experiment: NCI tumour cell line growth inhibition, 48 h.
In another experiment the test system is SN12K1 renal. Nature of the experiment: NCI tumour cell line growth inhibition, 48 h.

As for `N/C(=N\N=C/c1cc([N+](=O)[O-])cc([N+](=O)[O-])c1O)NO`, the values for the TGI with P388/ADR leukemia and in the experiment with SN12K1 renal were more than 100 µM and 4.92 µM, respectively.

In the case of `CC1=NN(C(=O)c2ccc(C)cc2)C(=O)C1N=Nc1ccccc1C(=O)O` (centres undefined), the TGI in the experiment on P388/ADR leukemia and in the experiment with SN12K1 renal was more than 100 µM each time.
